In paper PMC7862291, “Full-length in meso structure and mechanism of rat kynurenine 3-monooxygenase inhibition” (Communications Biology, 2021):
“And” between values parts separate entries of the source, which are not always exact repeats. Equal entries are not always repeated. Where two headings read alike, the source gives them in different places.

Assays:
[1] = molecular target: T1, HEK293 cells stably expressing human KMO (Homo sapiens, UniProt O15229); assay: Cell-based human KMO inhibition assay (LC/MS of 3-hydroxykynurenine); conditions: for inhibition rate, Hs-KMO cellular assay (Figure 1C source data): duplicates
T1 construct: expressed in transfected cells
Procedure: (§1) HEK293 cells stably expressing human or rat KMO were maintained in DMEM containing 10% fetal bovine serum, 50 units/mL penicillin, 50 μg/mL streptomycin and 0.2 mg⁄mL zeocine. […] After 2 overnights, the medium was replaced with 10 μL/well of assay buffer (1 × HBSS containing 20 mM HEPES). Ten microliters per well of the diluted test compounds (final, 0–30 μM, 0.3% DMSO) were added to the respective wells. After ~30 min of pre-incubation at 37 °C, reactions were started by adding 20 μL of substrate solution containing 0.2 mM kynurenine. Reactions were run for 2 h at 37 °C, the assay buffer was discarded and the plate was immediately frozen and stored at −30 °C until LC/MS analysis.
(§2) An 80 µL volume of cold acetonitrile with 2% formic acid was added to the cell pellet in a 384-well plate and centrifuged at 3000 rpm for 10 min at 4 °C. A 40 µL volume of the supernatant was transferred to a new 384-well plate and evaporated to dryness under nitrogen gas at 45 °C. The residue was reconstituted in 100 µL of acetonitrile/water (10:90, v/v) with 0.1% formic acid, and 1 µL was injected into the LC-MS/MS system.
(§3) LC/MS/MS was performed on a Shimadzu UFLC Nexera X2 (Shimadzu Corporation, Japan) and an QTRAP® 5500 LC-MS/MS System (SCIEX, Framingham, USA). Chromatographic separation was performed using an Allure PFP Propyl analytical column (5 µm, 2.1 × 100 mm) maintained at 50 °C. The autosampler temperature was set at 15 °C. The mobile phase consisted of formic acid/water/acetonitrile/methanol (0.5/500/250/250, v/v/v/v) and the flow rate was set at 0.3 mL/min. 3-hydroxykynurenine was eluted from the LC column at a retention time of 1.2 min. The MS system was operated using electrospray ionization (ESI) in positive mode. The optimum conditions were curtain gas, 20 psi; ion spray voltage, 5500 V; heated nebulizer temperature (TEM), 700 °C; nebulizing gas (GS1), 70 psi; and heater gas (GS2), 70 psi. […] Analyst® software (SCIEX, Framingham, USA) was used for system control and MultiQuant™ Software (SCIEX, Framingham, USA) was used for data analysis.
(§4) Compound assays were analysed and plotted on graphs using Prism (GraphPad Software Inc. San Diego, CA, USA).

[2] = test system: KMO; parameters: method as in ref 27 Jacobs et al; conditions: 600 μM kynurenine, recombinant protein, fluorescence; ref 27 Jacobs et al; cited from earlier work
[3] = test system: KMO; parameters: method as in ref 20 Winkler et al; conditions: 100 kynurenine, CHO cells, LC/MS; ref 20 Winkler et al; read-out: cellular IC50 (Winkler et al); cited from earlier work
[4] = molecular target: T2, hKMO (Homo sapiens, UniProt O15229); assay: Human KMO enzyme (cell-free) assay, NADPH consumption by absorbance; assay type: biochemical; conditions: for inhibition rate, Hs-KMO cell-free assay (Figure 1A source data): duplicates
T2 construct: purchased Origene
Procedure: (§5) Human KMO was purchased from Origene and used to assay compounds. Full-length Rat-KMO purified for crystallisation was used to assay compounds. Full-length Rat-KMO-expressing membranes were used for mutant assays (Fig. 4b) only. […] Images were taken using Odyssey CLX (LI-COR Biosciences) and quantified using ImageStudio2.0 (LI-COR Biosciences) software.
(§6) Test compounds were dissolved in DMSO and diluted with assay buffer containing 50 mM HEPES, 2 mM MgCl2, 0.5 mM EGTA, 1 mM DTT, 0.05% Tween20 and 0.005% of antiform SI (pH = about 7.9) to prepare a 4% DMSO solution. […] After 5 min of pre-incubation, reactions were started by adding 10 μL of substrate solution containing 2.4 mM kynurenine and 0.6 mM NADPH. Reactions were run for 90 min at 30 °C, then terminated by adding 5 μL of stop buffer (40 mM maleimide, 2 mM WST-9 and 0.1 mM 1-methoky PMS in water). […] Liposomal assays were performed in the same manner except that the composition of the assay buffer was changed (phosphate-buffered saline, 2 mM MgCl2, 1 mM DTT, 0.05% Tween 20).
as §4

[5] = molecular target: T3, HEK293 cells stably expressing rat KMO (Rattus norvegicus, UniProt O88867); assay: Cell-based rat KMO inhibition assay (LC/MS of 3-hydroxykynurenine); conditions: duplicates
T3 construct: expressed in transfected cells
Procedure: as §1, §2, §3, §4

[6] = molecular target: T4, Rat KMO (Rattus norvegicus, UniProt O88867); assay: Rat KMO enzyme (cell-free) assay, NADPH consumption by absorbance; assay type: biochemical; conditions: duplicates
T4 construct: The GST-tagged full-length KMO (1-478) baculovirus vector contained a thrombin cleavage site; GST (thrombin cleavage site between GST and KMO) (N, cleaved yes); made in house; host or cells: Spodoptera frugiperda (Sf9), baculovirus
Procedure: as §5, §6, §4

T4 sequence (O88867 whole entry): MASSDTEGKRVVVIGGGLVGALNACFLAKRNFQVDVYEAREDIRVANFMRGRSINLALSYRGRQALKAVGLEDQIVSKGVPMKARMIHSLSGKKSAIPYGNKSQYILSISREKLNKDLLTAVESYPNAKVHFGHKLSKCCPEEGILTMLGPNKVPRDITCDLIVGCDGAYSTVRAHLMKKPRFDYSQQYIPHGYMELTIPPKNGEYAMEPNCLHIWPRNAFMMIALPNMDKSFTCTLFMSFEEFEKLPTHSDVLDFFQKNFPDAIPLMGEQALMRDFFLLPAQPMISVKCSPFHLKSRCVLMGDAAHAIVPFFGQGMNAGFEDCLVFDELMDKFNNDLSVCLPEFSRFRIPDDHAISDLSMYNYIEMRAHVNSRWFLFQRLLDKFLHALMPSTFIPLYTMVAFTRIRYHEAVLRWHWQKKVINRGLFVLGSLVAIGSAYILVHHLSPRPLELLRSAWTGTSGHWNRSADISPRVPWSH
T3 sequence (O88867 whole entry): as above
T2 sequence (O15229 whole entry): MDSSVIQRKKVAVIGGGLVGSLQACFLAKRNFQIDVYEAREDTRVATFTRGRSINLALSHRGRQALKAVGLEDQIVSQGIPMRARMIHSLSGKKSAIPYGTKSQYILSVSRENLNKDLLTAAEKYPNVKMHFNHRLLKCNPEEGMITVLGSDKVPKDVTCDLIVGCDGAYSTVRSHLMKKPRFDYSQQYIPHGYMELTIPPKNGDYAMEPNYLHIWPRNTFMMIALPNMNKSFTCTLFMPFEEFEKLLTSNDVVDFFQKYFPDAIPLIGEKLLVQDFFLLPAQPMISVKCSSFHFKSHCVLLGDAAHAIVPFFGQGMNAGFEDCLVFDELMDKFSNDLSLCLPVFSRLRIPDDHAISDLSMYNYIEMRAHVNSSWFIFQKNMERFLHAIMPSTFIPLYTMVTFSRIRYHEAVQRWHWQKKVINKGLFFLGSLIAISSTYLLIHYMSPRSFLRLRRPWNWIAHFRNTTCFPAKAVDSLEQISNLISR
T1 sequence (O15229 whole entry): as above

## COc1ccc(S(=O)(=O)Nc2nc(-c3cccc([N+](=O)[O-])c3)cs2)cc1OC [Ro 61-8048, reference compound]
[1]; 100 μM kynurenine, HEK293, LC/MS, species not given, read-out: cellular IC50 (this study)
  IC50: 1200 nM
[1]; conc 0.03 μM
  inhibition rate, Hs-KMO cellular assay (Figure 1C source data): 4.914% and 11.092%
[1]; conc 0.1 μM
  inhibition rate, Hs-KMO cellular assay (Figure 1C source data): 7.800% and 13.947%
[1]; conc 0.3 μM
  inhibition rate, Hs-KMO cellular assay (Figure 1C source data): 9.982% and 16.379%
[1]; conc 1 μM
  inhibition rate, Hs-KMO cellular assay (Figure 1C source data): 34.540% and 30.293%
[1]; conc 3 μM
  inhibition rate, Hs-KMO cellular assay (Figure 1C source data): 100.863% and 99.409%
[1]; conc 10 μM
  inhibition rate, Hs-KMO cellular assay (Figure 1C source data): 104.869% and 104.896%
[1]; conc 30 μM
  inhibition rate, Hs-KMO cellular assay (Figure 1C source data): 105.453%
[2]
  IC50: 780 ± 1000 nM
[3]
  IC50: 640 nM
[4]; 1200 μM kynurenine, recombinant protein, absorbance, species not given, read-out: IC50 (cell-free assay, this study)
  IC50: 1400 nM
[4]; conc 0.03 μM
  inhibition rate, Hs-KMO cell-free assay (Figure 1A source data): 7.785% and 11.650%
[4]; conc 0.1 μM
  inhibition rate, Hs-KMO cell-free assay (Figure 1A source data): 5.377% and 7.729%
[4]; conc 0.3 μM
  inhibition rate, Hs-KMO cell-free assay (Figure 1A source data): 12.406% and 14.871%
[4]; conc 1 μM
  inhibition rate, Hs-KMO cell-free assay (Figure 1A source data): 37.359% and 37.779%
[4]; conc 3 μM
  inhibition rate, Hs-KMO cell-free assay (Figure 1A source data): 72.366% and 74.382%
[4]; conc 10 μM
  inhibition rate, Hs-KMO cell-free assay (Figure 1A source data): 94.630%
[4]; conc 30 μM
  inhibition rate, Hs-KMO cell-free assay (Figure 1A source data): 102.611% and 104.600%
[4]; conc 100 μM
  inhibition rate, Hs-KMO cell-free assay (Figure 1A source data): 98.579% and 94.322%
[5]; conc 0.03 μM
  inhibition rate, Rat-KMO cellular assay (Figure 1D source data): 12.914% and 13.940%
[5]; conc 0.1 μM
  inhibition rate, Rat-KMO cellular assay (Figure 1D source data): 6.038% and 6.971%
[5]; conc 0.3 μM
  inhibition rate, Rat-KMO cellular assay (Figure 1D source data): 6.605% and 2.668%
[5]; conc 1 μM
  inhibition rate, Rat-KMO cellular assay (Figure 1D source data): 18.248% and 25.802%
[5]; conc 3 μM
  inhibition rate, Rat-KMO cellular assay (Figure 1D source data): 86.872% and 86.727%
[5]; conc 10 μM
  inhibition rate, Rat-KMO cellular assay (Figure 1D source data): 97.726% and 97.601%
[5]; conc 30 μM
  inhibition rate, Rat-KMO cellular assay (Figure 1D source data): 99.995% and 100.184%
[6]; conc 0.03 μM
  inhibition rate, Rat-KMO cell-free assay (Figure 1B source data): 9.186% and 13.905%
[6]; conc 0.1 μM
  inhibition rate, Rat-KMO cell-free assay (Figure 1B source data): 21.990% and 21.221%
[6]; conc 0.3 μM
  inhibition rate, Rat-KMO cell-free assay (Figure 1B source data): 47.520% and 47.997%
[6]; conc 1 μM
  inhibition rate, Rat-KMO cell-free assay (Figure 1B source data): 71.114% and 72.121%
[6]; conc 3 μM
  inhibition rate, Rat-KMO cell-free assay (Figure 1B source data): 77.185% and 81.347%
[6]; conc 10 μM
  inhibition rate, Rat-KMO cell-free assay (Figure 1B source data): 87.099% and 89.538%
[6]; conc 30 μM
  inhibition rate, Rat-KMO cell-free assay (Figure 1B source data): 98.075% and 95.980%
[6]; conc 100 μM
  inhibition rate, Rat-KMO cell-free assay (Figure 1B source data): 89.963% and 91.580%
